Article PMC10298982, “Stability Characterization of the Novel Anti-Cancer HM-10/10 HDL-Mimetic Peptide” (International Journal of Molecular Sciences, 2023)
Where “and” joins values, the source holds several entries; their conditions need not be identical. Equal values may be shown once. Read-outs that look alike come from different tables or passages of the source. Ends that are not written are not given here.

What was measured:
[1] = Stability in simulated gastric fluid (SGF); format: in vitro ADME; conditions: SGF pH 1.3
Experimental: When developing any potentially oral-route pharmaceutical agent, the denaturing and pepsin-rich environment of the stomach must be considered. The stability of HM-10/10 was tested in simulated gastric fluid (SGF) and simulated intestinal fluid (SIF) over 120 min. […] Samples were tested at 2 μM.
For the HM-10/10 stability assay in simulated gastric and intestinal fluids, propantheline was used to confirm retention time and carbutamide was used as the internal standard for calculations.

[2] = Stability in potassium phosphate buffers of pH 1.3, 5.5 and 7.4; format: physicochemical; conditions: potassium phosphate buffer; for remaining at 1 h, 2 µM: read-out: % Remaining at 60 min
Experimental: The stability of HM-10/10 under varying pH conditions was determined by adding the compound to potassium phosphate buffers of pH 1.3 (acidic), 5.5 (slightly acidic), and 7.4 (physiological pH), with 7-Ethoxycoumarin used as a control article. Under acidic and slightly acidic conditions, the half-life of HM-10/10 could not be determined, as the percentage of HM-10/10 was higher at the end of the time course than at the beginning (Table 3, Figure 3). […] Samples were tested at 2 µM.
The instrument was equipped with an electrospray ionization source (600 °C) operated in the positive-ion mode.

[3] = Metabolic stability in Sprague-Dawley rat liver microsomes; format: in vitro ADME; conditions: for CLint scaled: rat, microsomes, Sprague-Dawley rat liver microsomes 0.5 mg protein/mL, 2 μM
[4] = Metabolic stability in cryopreserved CD-1 mouse hepatocytes; format: in vitro ADME; conditions: CD-1 mouse hepatocytes 0.5 million cells/mL; for CLint scaled: mouse, hepatocytes, 2 μM
[5] = Metabolic stability in cryopreserved beagle dog hepatocytes; format: in vitro ADME; conditions: Beagle dog hepatocytes 0.5 million cells/mL; for CLint scaled: dog, hepatocytes, 2 μM
[6] = Protein binding in human plasma (ultracentrifugation); format: in vitro ADME; conditions: pH 7.4, Human plasma (K2EDTA)
[7] = test system: human plasma proteins; experiment: as above; format: in vitro ADME; conditions: Human plasma (K2EDTA); 2 μM; 2.5 h at 37 °C
[8] = test system: CYP3A4; experiment: CYP3A4 induction (enzyme activity) in single-donor human hepatocytes; format: in vitro ADME; conditions: for Fold Increase (Enzyme Activity) Mean: mean of three lots
[9] = test system: CYP2B6; experiment: CYP2B6 induction (mRNA expression) in single-donor human hepatocytes; format: in vitro ADME
Experimental: RNA isolation and quantification: E-Z 96 Total RNA Kit (Omega Bio-tek, Catalog No. R1034-02) was used for RNA isolation and Quant-iT RNA assay kit (ThermoFisher, Catalog No. Q33140) was used for RNA quantification. The plates were removed from a −80 °C freezer and equilibrated to room temperature. RNA was extracted using the manufacturer’s recommended protocol. Eighty-one microliters of 100% ethanol were added into each well containing 150 µL of lysed sample to make a final ethanol concentration at 35%.
cDNA generation: For cDNA generation, a High-Capacity cDNA Reverse Transcription Kit (Applied Biosystems, Catalog No. 4319983) and QuantStudio 3 PCR system (Applied Biosystems) were used. In this step, 2X Reverse Transcription Master Mix was prepared using the contents of the kit. Then, 10 µL of total RNA was added to 10 µL of 2X Reverse Transcription Master Mix in a microplate and the plate was sealed. This plate was then run in a thermocycler to generate cDNA.
Real time PCR: SsoAdvanced Universal SYBR® Green Supermix (BIO-RAD, Catalog No. 172-5270) and the QuantStudio 3 Real-Time PCR system (Applied Biosystems) were used to perform real-time PCR on the generated cDNA. In this step, a PCR mix was prepared using PCR Supermix, SYBR® primers for the targeted genes, and nuclease-free water. Two microliters of ten-fold diluted cDNA samples (5 µL of cDNA into 45 μL of nuclease-free water) were added to 8 µL of PCR Mix in a microplate and sealed. This plate was then run through the Real-Time PCR system to generate the mRNA expression data.
• Human GAPDH • F: […] • R: […] • Human CYP1A2 • Unique Assay ID: qHsaCID0015160 • Chromosome Location: 15:75045562-75047256 • Human CYP2B6 • F: […] • R: […] • Human CYP3A4 • F: […] • R: […]

[10] = test system: CYP450 isoenzymes (1A2, 2B6, 2C8, 2C9, 2C19, 2D6 and 3A4); experiment: CYP450 time-dependent inhibition, all isoenzymes together; format: in vitro ADME, human
[11] = target: CYP2D6 (Homo sapiens, UniProt P10635); conditions: microsomes
[12] = Protein binding in Sprague-Dawley rat plasma (ultracentrifugation); conditions: Sprague-Dawley, rat, plasma (K2EDTA), pH 7.4
[13] = test system: Sprague-Dawley rat plasma proteins; experiment: as above; conditions: Sprague-Dawley rat plasma (K2EDTA), 2 μM
[14] = read-out: CLint (L/hr/kg) (converted)
[15] = cryopreserved hepatocytes, read-out: % Remaining at 30 min

CYP2D6, sequence (P10635 whole entry): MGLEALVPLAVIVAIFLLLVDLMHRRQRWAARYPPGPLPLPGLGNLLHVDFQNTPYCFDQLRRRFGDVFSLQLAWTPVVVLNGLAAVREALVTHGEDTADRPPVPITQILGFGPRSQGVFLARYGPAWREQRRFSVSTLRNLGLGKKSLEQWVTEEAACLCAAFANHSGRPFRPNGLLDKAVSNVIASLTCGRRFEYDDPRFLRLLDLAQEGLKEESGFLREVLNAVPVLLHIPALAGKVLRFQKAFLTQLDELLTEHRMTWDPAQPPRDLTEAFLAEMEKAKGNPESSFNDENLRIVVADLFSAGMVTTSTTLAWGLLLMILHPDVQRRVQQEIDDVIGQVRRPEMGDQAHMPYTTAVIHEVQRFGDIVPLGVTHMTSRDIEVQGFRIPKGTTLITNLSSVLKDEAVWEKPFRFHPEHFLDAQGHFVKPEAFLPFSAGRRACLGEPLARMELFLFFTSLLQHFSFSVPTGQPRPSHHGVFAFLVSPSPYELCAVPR

half-life at 2 µM [1]: 6.2 h | half-life at 2 µM ([2]; Acidic (pH 1.3)): > 2 h | remaining at 1 h, 2 µM ([2]; Acidic (pH 1.3)): 156% | half-life at 2 µM ([2]; Physiological pH (pH 7.4)): 7.22 h | remaining at 1 h, 2 µM ([2]; Physiological pH (pH 7.4)): 81.4% | half-life at 2 µM ([2]; Slightly Acidic (pH 5.5)): > 2 h | remaining at 1 h, 2 µM ([2]; Slightly Acidic (pH 5.5)): 136% | half-life at 2 µM ([3]; pooled liver microsomes, pH 7.4, Sprague-Dawley rat liver microsomes 0.5 mg protein/mL): 0.462 h | remaining at 2 h, 2 µM ([3]; pooled liver microsomes, pH 7.4, Sprague-Dawley rat liver microsomes 0.5 mg protein/mL, read-out: % Remaining at 120 min): 3.7% | CLint scaled [3, 14]: 6.09 L/h/kg | CLint scaled ([3]; read-out: CLint (mL/min/kg)): 6.06 L/h/kg | half-life at 2 µM ([4]; cryopreserved hepatocytes): < 0.25 h | remaining at 0.5 h, 2 µM [4, 15]: 0.7% | CLint scaled ([4]; read-out: CLint (L/hr/kg)): > 65.5 L/h/kg | CLint scaled ([4]; read-out: CLint (mL/min/kg)): > 65.4 L/h/kg | half-life at 2 µM ([5]; cryopreserved hepatocytes): 0.178 h | remaining at 0.5 h, 2 µM [5, 15]: 16% | CLint scaled [5, 14]: 42 L/h/kg | CLint scaled ([5]; read-out: CLint (mL/min/kg)): 41.9 L/h/kg | remaining at 2.5 h, 2 µM ([6]; 37 °C, read-out: % Stability in Matrix (2.5 h)): 88.5% | fraction unbound at 2.5 h, 2 µM ([6]; 2.5 h at 37 °C, read-out: Fu (Unbound Fraction) Mean ± SD): 0.203 ± 0.055 | % Protein Bound Mean ± SD [7]: 79.7% and 79.7 ± 5.5% | % Protein Free Mean ± SD [7]: 20.3 ± 5.5% | Fold Increase (Enzyme Activity) Lot HH1086 ([8]; 2 µM): 2.06 fold | Fold Increase (Enzyme Activity) Lot HH1142 ([8]; 2 µM): 1.59 fold | Fold Increase (Enzyme Activity) Lot HH1144 ([8]; 2 µM): 1.35 fold | Fold Increase (Enzyme Activity) Mean ([8]; 2 µM): 1.67 fold | Fold Increase (Enzyme Activity) Lot HH1086 ([8]; 10 µM): 2.20 fold | Fold Increase (Enzyme Activity) Lot HH1142 ([8]; 10 µM): 2.12 fold | Fold Increase (Enzyme Activity) Lot HH1144 ([8]; 10 µM): 1.83 fold | Fold Increase (Enzyme Activity) Mean ([8]; 10 µM): 2.05 fold | Fold Increase (Enzyme Activity) Lot HH1086 ([8]; 25 µM): 2.07 fold | Fold Increase (Enzyme Activity) Lot HH1142 ([8]; 25 µM): 2.19 fold | Fold Increase (Enzyme Activity) Lot HH1144 ([8]; 25 µM): 2.15 fold | Fold Increase (Enzyme Activity) Mean ([8]; 25 µM): 2.14 fold | Comments (mRNA induction) ([9]; 2 µM): Induction Observed | Fold Increase (mRNA Expression) Lot HH1086 ([9]; 2 µM): 2.03 fold | Fold Increase (mRNA Expression) Lot HH1142 ([9]; 2 µM): 9.76 fold | Fold Increase (mRNA Expression) Lot HH1144 ([9]; 2 µM): 2.86 fold | Fold Increase (mRNA Expression) Mean of 3 Lots ([9]; 2 µM): 4.88 fold | Comments (mRNA induction) ([9]; 10 µM): Induction Observed | Fold Increase (mRNA Expression) Lot HH1086 ([9]; 10 µM): 2.54 fold | Fold Increase (mRNA Expression) Lot HH1142 ([9]; 10 µM): 7.08 fold | Fold Increase (mRNA Expression) Lot HH1144 ([9]; 10 µM): 3.33 fold | Fold Increase (mRNA Expression) Mean of 3 Lots ([9]; 10 µM): 4.32 fold | Comments (mRNA induction) ([9]; 25 µM): Induction Observed | Fold Increase (mRNA Expression) Lot HH1086 ([9]; 25 µM): 1.26 fold | Fold Increase (mRNA Expression) Lot HH1142 ([9]; 25 µM): 5.04 fold | Fold Increase (mRNA Expression) Lot HH1144 ([9]; 25 µM): 1.92 fold | Fold Increase (mRNA Expression) Mean of 3 Lots ([9]; 25 µM): 2.74 fold | Inhibition of CYP450 isoenzymes at 50 µM (maximum test concentration) ([10]; all isoenzymes, +/− NADPH, with and without 30-min preincubation): No inhibition to minimal inhibition | Inhibition of CYP isozymes at 50 µM with pre-incubation in the presence of 1 mM NADPH ([10]; all isozymes, pooled human liver microsomes 0.1 mg/mL): less than 30% | Time-dependent inhibition (TDI) of CYP450 isoenzymes ([10]; up to 50 µM, all isoenzymes): no TDI | % Inhibition at 50 µM No PI + NADPH [11]: 6.0% | % Inhibition at 50 µM No PI − NADPH [11]: 17.2% | % Inhibition at 50 µM PI + NADPH [11]: 17.0% | % Inhibition at 50 µM PI − NADPH [11]: 19.7% | fraction unbound at 2.5 h, 2 µM [12]: 0.672 ± 0.094 | % Stability in Matrix (2.5 h) ([13]; 37 °C): 36.6% | % Protein Bound Mean ± SD ([13]; 2.5 h at 37 °C): 32.8 ± 9.4% | % Protein Free Mean ± SD ([13]; 2.5 h at 37 °C): 67.2 ± 9.4%
Sequence: LRKLRKRLLRLVGRQLEEFL [HM-10/10, LRKLRKRLLRLVGRQLEEFL]
